Measured values taken from patent publication US11406628B2, “Sustained-release triptan compositions and method of use the same through subdermal route or the like” (Taiwan Liposome Co., Ltd, priority 2017, dated 2022).
Where two headings read alike, the source gives them in different places.

What was measured:
[1] = human, cited from earlier work
[2] = female rats, cited from earlier work; for Cmax/dose: normalization using sumatriptan succinate dosage
patients = details: within 24 hours or 48 hours of initial symptom resolution; cited from earlier work
[3] = Pharmacokinetic study of liposomal sumatriptan in rats after single subcutaneous administration
Procedure: Jugular vein cannulated (JVC) female Sprague-Dawley rats (7-9 weeks) were used for a pharmacokinetic (PK) study. The rats were housed in a holding room which operates on a 12-hour light/12-hour dark circadian cycle with free access (ad libitum) to water and food.
Blood samples were collected at 2, 4, 8, 24, 48 and 72 hours post-injection. Plasma samples were obtained by centrifugation and then dimethyl sulfoxide was added to the plasma samples at a final concentration of 5% (v/v) for storing the samples at −80° C. until analysis. One-hundred microliters of each sample were subject to separation of sumatriptan by a Strata C18-E tube to obtain the sumatriptan fraction and sumatriptan concentration was determined employing LC-MS/MS methods.
The unformulated sumatriptan injection was prepared by dissolving the sumatriptan tartrate in ultrapure water at 2 mg/mL. The in vivo PK profiles of the rats (n=3) administrated with unformulated sumatriptan following subcutaneous injection at the dosage of 3 mg/kg of sumatriptan tartrate were compared to the PK profiles of the rats administered 10 mg/kg of sumatriptan from the liposomal sumatriptan formulation. Blood samples were collected at 15 mins, 0.5, 1, 2, 4, 6 and 8 hours post-injection. Plasma samples were obtained by centrifugation and were kept frozen at −80° C. until analysis.
FIG. 1 depicts the mean sumatriptan concentration versus time curve over 72 hours post-injection. Table 2 provides a summary of the PK parameters which were obtained using a noncompartmental model within the PKSolver program.

[4] = unformulated 3 mg/kg, liposomal 10 mg/kg

## CNS(=O)(=O)Cc1ccc2[nH]cc(CCN(C)C)c2c1 [sumatriptan]
[1]; 6 mg subcutaneous injection
  half-life (t1/2): 2 h
[1]; 20 mg intranasal administration
  half-life (t1/2): 1.8 h
[1]; 100 mg oral tablet
  half-life (t1/2): 2 h
[1]; irrespective of route of administration
  half-life (t1/2): approximately 2 hours
[1]; subcutaneous injection
  time to reach maximum plasma concentration: approximately 10 minutes
[2]; intranasal administration
  t1/2: 3.6 h
[2]; intranasal
  Cmax/dose: 25 ng/mL
[2]; intravenous administration
  t1/2: 1.1 h
[2]; intravenous
  Cmax/dose: 508.6 ng/mL
patients
  migraine recurrence rate: about 40%

## sumatriptan tartrate [Unformulated Sumatriptan]
[3]; dose-normalized
  AUC0-t/dose: 226.9
  Cmax/dose: 138
[3]; [4]
  AUC0-inf: 687.4 ng·h/mL
  AUC0-t: 680.6 ng·h/mL
  Cmax: 414 ng/mL
  t1/2: 1.1 h
